The values that follow come from patent publication US20230286973A1, “PROTEIN SECRETION INHIBITORS” (KEZAR LIFE SCIENCES, priority 2020, published 2023).

For data set [1], the system named is multiple myeloma cell line U266B1. The data set can be described thus: U266 Cell Viability Assay. Type of data set: cell-based, human. As to conditions: Homo sapiens, U-266, 48 h, U266B1 cells, Celltiter-Glo. As to the method:
(§1) The human multiple myeloma cell line U266B1 was cultured in RPMI 1640 media supplemented with 10% fetal bovine serum, 2 mM Glutamine, and 1× Penicillin/Streptomycin. Cells were plated in 384-well tissue culture plates and treated with compound dilutions in DMSO/media. Plates were incubated at 37° C., 5% CO2 for 48 hours. After 48 hours, Celltiter-Glo® (Promega) was added to each well and luciferase signal was quantified using Tecan Infinite M1000 Pro for cell viability determination.
(§2) For chemical structures that include one or more stereoisomers, but are illustrated without indicating stereochemistry, the assay data refers to a mixture of stereoisomers.

Data set [2] relates to IL-2-FL/Gaussia Luciferase. The data set can be described thus: Dox Induced IL2-FL-Gluc Assay. Type of data set: cell-based. The note with it: for IC50: 24 hr Dox induction, 293FRT/TO cells, read-out: 24 hr Dox Inducible IL2FLGluc 293FRT/TO: Mean IC50; for 24 hr Dox Inducible IL2FLGluc 293FRT/TO: IL2/PD1: ratio of IL2FLGluc IC50 to PD1ssGluc IC50. Summed up: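 Doxycycline induces an IL-2(1-153)–Gaussia luciferase fusion in a stable Flp-In 293 T-REx line. Compound exposure runs alongside induction at 37° C.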

The test system of data set [3] is HER3-ss+4aa/Gaussia Luciferase. The data set can be described thus: Dox-Induced Her3-ss-Gluc Assay. Type of data set: cell-based. As to conditions: 24 hr Dox induction; 293FRT/TO cells; read-out: 24 hr Dox Inducible Her3(ss + 4)Gluc 293FRT/TO: Mean IC50.
From the text: Flp-In 293 T-REx™ cells were transfected with pcDNA™5/FRT/TO plasmid inserted with cDNA encoding Gaussia Luciferase fused to the 3′ end of cDNA encoding HER3 signal sequence plus 4 amino acids (N-[…]-C) (SEQ ID NO: 2). Transfected cells were selected for resistance to the selectable markers Hygromycin and Blasticidin to create a stable cell line that contained the HER3-ss+4aa/Gaussia Luciferase cDNA insert whose expression was regulated under the T-REx™ system. The day before assay, cells were trypsinized and plated in 384-well tissue culture plates. The next day, compound dilutions in DMSO/media containing doxycycline were added to the wells and incubated at 37° C., 5% CO2.
as §2

Data set [4] relates to multiple myeloma cell line NCI-H929. The data set can be described thus: H929 Cell Viability Assay. Type of data set: cell-based, human. The note with it: Homo sapiens, NCI-H929, 48 h, NCI-H929 cells, Celltiter-Glo. As to the method:
as §1, with “NCI-H929” for “U266B1”, “cultured in Advanced RPMI 1640 media (Gibco®) supplemented with 6% fetal bovine serum, 2 mM Glutamine, and 1× Penicillin/Streptomycin. On the day of assay, cells were resuspended” for “cultured”, “Penicillin/Streptomycin and” for “Penicillin/Streptomycin. Cells were”
as §2
Background: In ATP-based viability assays light output follows the ATP content of the culture.

The subject of data set [5] is PD1-ss+10aa/Gaussia Luciferase. As to the kind of experiment: Dox-Induced PD1-ss-Gluc Assay. Format: cell-based. The note with it: 24 hr Dox induction, 293FRT/TO cells, read-out: 24 hr Dox Inducible PD1ssGluc 293FRT/TO: Mean IC50. The method, boiled down: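 Gaussia luciferase fused downstream of the PD1 signal peptide plus 10 residues was expressed on doxycycline induction in stably transfected Flp-In 293 T-REx cells. Compounds were added with doxycycline and incubated at 37 °C, 5% CO2.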

Data set [6] concerns TNFα-FL/Gaussia Luciferase. The data set can be described thus: Dox Induced TNFα-FL-Gluc Assay. As to conditions: for IC50: 24 hr Dox induction, 293FRT/TO cells, read-out: 24 hr Dox Inducible TNFaFLGluc 293FRT/TO: Mean IC50; for 24 hr Dox Inducible TNFaFLGluc 293FRT/TO: TNF/PD1: ratio of TNFaFLGluc IC50 to PD1ssGluc IC50. Format: cell-based.
From the text: Flp-In 293 T-REx™ cells were transfected with pcDNA™5/FRT/TO plasmid inserted with cDNA encoding Gaussia Luciferase fused to the 3′ end of cDNA encoding full length TNFα (amino acids 1-233). Transfected cells were selected for resistance to the selectable markers Hygromycin and Blasticidin to create a stable cell line that contained the TNFα-FL/Gaussia Luciferase cDNA insert whose expression was regulated under the T-REx™ system. The day before assay, cells were trypsinized and plated in 384-well tissue culture plates. The next day, compound dilutions in DMSO/media containing doxycycline were added to the wells and incubated at 37° C., 5% CO2.
as §2

A short description of data set [7]: Liver Microsome Stability Assay (monkey). The note with it: monkey liver microsomes, with NADPH, 1.0 uM compound.
Description: (§3) Stability of a compound was assessed in the presence of liver microsomes from various sources—mouse, rat, monkey and human liver microsomes. 1.0 uM compound, 0.4% DMSO in 0.1 M Potassium Phosphate with 1.0 mg/mL liver microsomes, were incubated at 37° C. with or without 1 mM NADPH. The samples were quenched at 0, and 30 minutes.
Data set [8] can be described thus: Liver Microsome Stability Assay (human). The note with it: human liver microsomes, with NADPH, 1.0 uM compound.
Description: as §3
A short description of data set [9]: Liver Microsome Stability Assay (mouse). The note with it: mouse liver microsomes, with NADPH, 1.0 uM compound. (Liver microsomes are vesicles of endoplasmic reticulum, rich in cytochrome P450 enzymes.)
Description: as §3
Data set [10] is described as follows: Liver Microsome Stability Assay (rat). The note with it: rat liver microsomes, with NADPH, 1.0 uM compound.
Description: as §3
The mark [11] stands for this setting: '<=>' given where both are I.A.

Read-outs that look alike come from different tables or passages of the source.

The EC50 is the concentration at which the effect is half-maximal. On to `CS(=O)(=O)Nc1ccc(N2CCC[C@@H]2c2csc(NC(=O)c3cccn3Cc3ccnc(F)c3)n2)cc1` [Compound A118, (R)-1-((2-fluoropyridin-4-yl)methyl)-N-(4-(1-(4-(methylsulfonamido)phenyl)pyrrolidin-2-yl)thiazol-2-yl)-1H-pyrrole-2-carboxamide], for which the EC50 is more than 25000 nM in data set [1] and 1800 nM in data set [4]. Moreover, the IC50 in [2] is 129 nM; in data set [3] it was 135 nM; in data set [5], 103 nM; in [6], 888 nM. In addition, the “24 hr Dox Inducible IL2FLGluc 293FRT/TO: IL2/PD1” value in data set [2] is 1.2. In addition, in [6], the “24 hr Dox Inducible TNFaFLGluc 293FRT/TO: TNF/PD1” value worked out at 8.6.

Consider `CNC(=O)Nc1ccc(N2CCC[C@@H]2c2csc(NC(=O)c3cccn3Cc3ccnc(F)c3)n2)cc1` [Compound A119, (R)-1-((2-fluoropyridin-4-yl)methyl)-N-(4-(1-(4-(3-methylureido)phenyl)pyrrolidin-2-yl)thiazol-2-yl)-1H-pyrrole-2-carboxamide], for which the EC50 was more than 25000 nM in data set [1] and 133 nM in [4]. Further, the IC50 in [2] was found to be 7.35 nM; in data set [3], 6.31 nM; in data set [5], 1.76 nM; in data set [6], 41.3 nM. For the same molecule, in [2], the “24 hr Dox Inducible IL2FLGluc 293FRT/TO: IL2/PD1” value stood at 4.2. Further, the “24 hr Dox Inducible TNFaFLGluc 293FRT/TO: TNF/PD1” value in [6] is recorded as 23.5.

As for `CC(C)Oc1ccc(N2CCC[C@@H]2c2csc(NC(=O)c3cccn3Cc3ccnc(F)c3)n2)cc1` [Compound A120, (R)-1-((2-fluoropyridin-4-yl)methyl)-N-(4-(1-(4-isopropoxyphenyl)pyrrolidin-2-yl)thiazol-2-yl)-1H-pyrrole-2-carboxamide], the EC50 in data set [1] is more than 25000 nM; in [4], 831 nM. In addition, the IC50 in [2] came to 42.6 nM; in data set [3], 34.5 nM; in data set [5], 24.5 nM; in data set [6] it was 158 nM. Moreover, the “24 hr Dox Inducible IL2FLGluc 293FRT/TO: IL2/PD1” value in data set [2] worked out at 1.7. The “24 hr Dox Inducible TNFaFLGluc 293FRT/TO: TNF/PD1” value in data set [6] was found to be 6.44.

For the molecule `CCc1cccc2nc(/C=C/c3csc(NC(=O)c4cccn4Cc4ccnc(F)c4)n3)cn12` [Compound B78, (E)-N-(4-(2-(5-ethylimidazo[1,2-a]pyridin-2-yl)vinyl)thiazol-2-yl)-1-((2-fluoropyridin-4-yl)methyl)-1H-pyrrole-2-carboxamide], the EC50 in [1] and in data set [4] was more than 25000 nM each time. Further, the IC50 in data set [2] is more than 25000 nM; in data set [3] it was more than 25000 nM; in [5], 418 nM; in data set [6], more than 25000 nM. The “24 hr Dox Inducible IL2FLGluc 293FRT/TO: IL2/PD1” value in data set [2] is given as more than 60. Besides, the “24 hr Dox Inducible TNFaFLGluc 293FRT/TO: TNF/PD1” value in data set [6] was more than 59.8.

Turning to `CCc1cccc2nc(/C=C/c3csc(NC(=O)c4cccn4Cc4ccncc4)n3)cn12` [Compound B79, (E)-N-(4-(2-(5-ethylimidazo[1,2-a]pyridin-2-yl)vinyl)thiazol-2-yl)-1-(pyridin-4-ylmethyl)-1H-pyrrole-2-carboxamide], the EC50 in [1] and in data set [4] was more than 25000 nM each time. The IC50 in data set [2] was 4340 nM; in data set [3] it was 3580 nM; in [5] it was 416 nM; in data set [6], more than 25000 nM. Moreover, the “24 hr Dox Inducible IL2FLGluc 293FRT/TO: IL2/PD1” value in data set [2] came to 10. For the same molecule, the “24 hr Dox Inducible TNFaFLGluc 293FRT/TO: TNF/PD1” value in data set [6] is listed as more than 60.1.

Take `O=C(Nc1nc([C@H]2CCCN2c2ccccc2)cs1)c1cccn1CC1=CCOCC1` [Compound C57, (R)-1-((3,6-dihydro-2H-pyran-4-yl)methyl)-N-(4-(1-phenylpyrrolidin-2-yl)thiazol-2-yl)-1H-pyrrole-2-carboxamide]: the “Liver Microsome Stability (Multiple Species): Monkey - % Remaining after 30 min w/NADPH” value in data set [7] is reported as 3.43%. The EC50 in data set [1] was more than 25000 nM; in data set [4] it was 23300 nM. Further, the IC50 in data set [2] (mean) turned out to be 1070 nM; in data set [5] (mean), 357 nM. In addition, the “24 hr Dox Inducible IL2FLGluc 293FRT/TO: IL2/PD1” value in data set [2] (setting [11]) is on record as 3. Besides, the “Liver Microsome Stability (Multiple Species): Human - % Remaining after 30 min w/NADPH” value in data set [8] amounted to 4.2%. In data set [9], the “Liver Microsome Stability (Multiple Species): Mouse - % Remaining after 30 min w/NADPH” value is 9.54%. Further, the “Liver Microsome Stability (Multiple Species): Rat - % Remaining after 30 min w/NADPH” value in [10] was 0.43%.

For `C#CCCn1cccc1C(=O)Nc1nc([C@H]2CCCN2c2ccccc2)cs1` [Compound C62, (R)-1-(but-3-yn-1-yl)-N-(4-(1-phenylpyrrolidin-2-yl)thiazol-2-yl)-1H-pyrrole-2-carboxamide], the “Liver Microsome Stability (Multiple Species): Monkey - % Remaining after 30 min w/NADPH” value in [7] turned out to be 0.74%. In addition, the EC50 in data set [1] and in data set [4] was more than 25000 nM throughout. The IC50 in data set [2] (mean) is more than 25000 nM; in [5] (mean), 8440 nM. For the same molecule, the “24 hr Dox Inducible IL2FLGluc 293FRT/TO: IL2/PD1” value in data set [2] (setting [11]) is more than 3.0. Moreover, the “Liver Microsome Stability (Multiple Species): Human - % Remaining after 30 min w/NADPH” value in data set [8] is recorded as 53%. The “Liver Microsome Stability (Multiple Species): Mouse - % Remaining after 30 min w/NADPH” value in data set [9] came out at 35.4%. In addition, the “Liver Microsome Stability (Multiple Species): Rat - % Remaining after 30 min w/NADPH” value in data set [10] is 8.75%.

On to `O=C(Nc1nc([C@H]2CCCN2c2ccccc2)cs1)c1cccn1Cc1cccnc1` [Compound E20, (R)-N-(4-(1-phenylpyrrolidin-2-yl)thiazol-2-yl)-1-(pyridin-3-ylmethyl)-1H-pyrrole-2-carboxamide], for which the “Liver Microsome Stability (Multiple Species): Monkey - % Remaining after 30 min w/NADPH” value in data set [7] amounted to 0.62%. The EC50 in data set [1] was determined as 23300 nM; in [4] it was 24600 nM. For the same molecule, the values for the IC50 in data set [2] (mean) and in data set [5] (mean) were 5000 nM and 2520 nM, respectively. Besides, the “24 hr Dox Inducible IL2FLGluc 293FRT/TO: IL2/PD1” value in data set [2] (setting [11]) was determined as 2. For the same molecule, in data set [8], the “Liver Microsome Stability (Multiple Species): Human - % Remaining after 30 min w/NADPH” value was determined as 0.96%. In addition, the “Liver Microsome Stability (Multiple Species): Mouse - % Remaining after 30 min w/NADPH” value in [9] came out at 0.82%. Further, the “Liver Microsome Stability (Multiple Species): Rat - % Remaining after 30 min w/NADPH” value in [10] was 0.14%.

As for `O=C(Nc1nc([C@H]2CCCN2c2ccccc2)cs1)c1ccc[nH]1` [Compound E58, (R)-N-(4-(1-phenylpyrrolidin-2-yl)thiazol-2-yl)-1H-pyrrole-2-carboxamide], the “Liver Microsome Stability (Multiple Species): Monkey - % Remaining after 30 min w/NADPH” value in data set [7] turned out to be 7.34%. Moreover, the EC50 in data set [1] and in data set [4] was more than 25000 nM in each case. The IC50 in data set [2] (mean) is more than 25000 nM; in data set [5] (mean), 8240 nM. Also, in data set [2] (setting [11]), the “24 hr Dox Inducible IL2FLGluc 293FRT/TO: IL2/PD1” value was more than 3.0. The “Liver Microsome Stability (Multiple Species): Human - % Remaining after 30 min w/NADPH” value in data set [8] stood at 26.7%. Moreover, the “Liver Microsome Stability (Multiple Species): Mouse - % Remaining after 30 min w/NADPH” value in data set [9] is on record as 8.68%. Moreover, the “Liver Microsome Stability (Multiple Species): Rat - % Remaining after 30 min w/NADPH” value in [10] stood at 1.33%.
